Measured values from US9533957B2, “Tetrazines and method of synthezising the same” (The Regents of the University of California, priority 2012, dated 2017).
{cycp1} = methylcyclopropene carbamate coupled through the 3' amine; {3AmMO} = amino modifier (IDT nomenclature)

What was measured:
[1] = Fluorescence turn-on spectroscopy of tetrazine-Alexa Fluor 488 with Ac4ManNCyc; type: physicochemical
Protocol: Mannosamine-cyclopropene (Ac4ManNCyc) and tetrazine-Alexa-Fluor 488 stocks were prepared at 1 and 0.1 mM, respectively, in phosphate-buffered saline (PBS) pH 7.4. Fluorescence turn-on was measured using a Perkin Elmer LD-45 spectrometer, with the excitation wavelength set to 480/5 nm, and emission scanned over 490-620 nm (5-nm slit width) at a rate of 50 nm/min. Reaction conditions were 50 μM tetrazine-Alexa-Fluor 488 and 100 μM Ac4ManNCyc in PBS pH 7.4 buffer at room temperature.

LS174T cells = assay: Live-cell microscopy of metabolically incorporated cyclopropene sugar; type: cell-based, human; details: 100 μM for 48 hours, then 10 μM tetrazine-Alexa Fluor 488 for 1 hour
Protocol: (§1) SKBR3 and LS 174T cells were grown in cDMEM media supplemented with 10% fetal bovine serum, 1% L-glutamine, 1% penicillin/streptomycin. Cells were incubated in 5.0% carbon dioxide, 95% humidity at 37° C. Generally, cells were grown in T-75 tissue culture flasks, seeded at densities between 500,000 and 750,000 cells per flask (cells were quantified with the Life Technologies Countess automated cell counter). The cells were trypsinized with TrypLE Express and resuspended in cDMEM. Cells were allowed to incubate for two days before supplementing with Ac4ManNCyc (N-cyclopropeneacetylmannosamine) or Ac4GlcNAz (N-azidoacetylglucosamine). The cells were then analyzed via confocal microscopy and flow cytometry as described below.
(§2) The SKBR3 and LS174T cells were incubated for two days in the presence of 100 μM of Ac4ManNCyc and/or 50 μM Ac4GlcNAz on a Lab-Tek chamber slide maintained in cDMEM medium. Treatment of cells with tunicamycin was done by preparing a 0.2 mg/mL stock in DMSO, which was diluted to a final working concentration of 1.2 μM tunicamycin in cDMEM (0.5% DMSO). Cells were washed 3× with phosphate-buffered saline (PBS) and incubated for 1 hour at 37° C. in 10 μM tetrazine-BODIPY TMR-X, 10 μM tetrazine-Alexa flour 488 and/or 15 μM dibenzocyclooctyne (DIBO)-Alexa Fluor 647 in cDMEM. The media was aspirated, and cells were washed twice with PBS before imaging. All photos were collected with an Olympus FV1000 confocal microscope using ImageJ 1.45j software package.
(§3) In order to determine if Ac4ManNCyc was incorporated effectively by cells, we incubated adherent human breast cancer (SKBR3) and colon cancer (LS174T) cell lines with 100 μM Ac4ManNCyc for 48 hours in cell media and serum. After incubation, cells were thoroughly washed and then reacted for 1 hour with 10 μM of fluorogenic Alexa Fluor 488 tetrazine. After a second wash, cells were imaged by confocal microscopy (Olympus FV1000). […] In order to ensure that the staining was due to glycan uptake of the probe, we also performed controls by exposing cells to 100 μM Ac4ManNCyc and inhibiting uptake by using glycosylation inhibitors (ie. tunicamycin and αBnGalNAc) or 20 mM of ManNAc as a competitive substrate.^[14] […] These experiments provide evidence that the staining patterns are reporting on glycosylation and uptake of the unnatural cyclopropene mannosamine. We also performed additional studies using flow cytometry to quantitate the relative uptake of sugars that corroborated the imaging data.

SKBR3 cells [2] = assay: as above; type: cell-based, human; details: SKBR3; 100 μM for 48 hours, then 10 μM tetrazine-Alexa Fluor 488 for 1 hour
Protocol: as §1, §2, §3

SKBR3 cells [3] = assay: Analysis of cell surface cyclopropenes by flow cytometry; type: cell-based, human; details: followed by tetrazine imaging probe
Protocol: After the incubating the adherent SKBR3 cells in 100 μM of Ac4ManNCyc (1.2 μM tunicamycin and/or 1 mM aBnGalNAc was used in experiments requiring glycosylation inhibitors) they were washed twice in PBS and then incubated in 10 μM of tetrazine-Alexa flour 488 for 1 hour at 37° C. Control cells were not exposed to Ac4ManNCyc and incubated in 10 μM of tetrazine-Alexa flour 488 for 1 hour at 37° C. Cells were then resuspended in 1-2 ml of cDMEM (5.0×10^5 to 1.0×10^6 per ml) using a rubber policeman. The cells were passed through a 25 gauge syringe to ameliorate excessive clumping, and subjected to analysis by flow cytometry using a 200 mW 488 nm blue solid state laser on the Partec Space Flow Cytometer (Partec).

[4] = test system: LS174T human colon cancer cells; assay: Simultaneous imaging of two metabolically incorporated unnatural sugars and cross reactivity; type: cell-based
Protocol: as §2
Finally, we tested whether or not we could simultaneously image two different metabolically incorporated unnatural sugar derivatives, Ac4ManNCyc and tetraacetylated N-azidoacetylgalactosamine (Ac4GalNAz). […] Recent experimental work has shown that alkenes and azides can be mutually orthogonal to each other, even when using highly strained trans-cyclooctenes. Additionally, the Houk group has calculated that methyl-cyclopropene handles, such as those we have previously developed, should be mutually orthogonal to azide cyclooctyne reactions. We incubated LS174T human colon cancer cells with 100 μM Ac4ManNCyc and Ac4GalNAz for 2 days. After incubation, we sequentially stained the cells with 10 μM tetrazine-Alexa Fluor 488 and 15 μM dibenzocyclooctyne (DIBO) 647. […] Similar results were obtained with the SKBR3 cell line. […] The ability to simultaneously label two different metabolically incorporated molecules using live-cell compatible inverse-Diels-Alder and Huisgen reactions expands the capabilities of bioorthogonal metabolic imaging.

[5] = Stability of cyclopropene 5 by 1H NMR; type: physicochemical; details: 37° C., over 24 hours
Protocol: Cyclopropene 5 was kept at 37° C. in D2O: DMSO-d6=10:1 and 1H NMR was taken over a period of 24 h at the following time points: 0.0, 0.5, 1.0, 1.5, 3.0, 6.0 and 24.0 h. By comparing the peak abundance of the cyclopropene alkene proton (6.21 ppm) at different time points, we determined the stability of cyclopropene 5 (Figure S2).

[6] = Storage stability of cyclopropene derivatives; type: physicochemical; details: stored at −20° C.
[7] = Reaction rate determination of cyclopropenes with tetrazine 3; type: physicochemical
Protocol: A tetrazine 3 stock solution was prepared in DMSO and used to prepare tetrazine solutions at 0.6 mM final concentration in 12% v/v DMSO in ddH2O. Reactions were initiated with excess cyclopropene at final concentrations of 6.0, 8.0, and 10.0 mM. The disappearance of the tetrazine absorption peak at 520 nm was tracked over the reaction timeframe by measuring the absorption spectra using a NanoDrop 2000c spectrophotometer (Thermo Scientific). Samples were placed in a quartz cuvette with 10-mm pathlength and stirred at the maximum speed setting of the instrument. The temperature was uncontrolled by the instrument for room temperature (20° C.) measurements, and set and equilibrated at 37° C. for the higher temperature experiments.
Absorption spectra were measured manually over time. Absorption peak signal was taken as the average of measurements at 519-521 nm. Baseline signal was determined as the sloping line connecting the measured background levels preceding and following the tetrazine peak (410-430 nm and 590-610 nm, respectively). Final peak intensity value was taken as the signal above the baseline. Reaction rates were obtained by fitting the exponential decays of tetrazine peak absorption intensity as a pseudo first order reaction. Nonlinear data fits were performed with GraphPad Prism. Tetrazine reactions with cyclopropene carbamate 5 were carried out at 20 and 37° C. (data points and corresponding fitted curves at 20° C. in FIG. 51, 37° C. in FIG. 2c). Tetrazine reactions with cyclopropene carboxamide 2 were done at 37° C. ([…]. A representative comparison fit is shown for cyclopropenes 5 and 2 at 8.0 mM concentration reacting at 37° C. with 0.6 mM tetrazine.

27mer DNA template [8] = assay: Melting temperatures of DNA template with probes and ligation products; type: physicochemical; details: hybridization target against 27mer template; 250 mM NaCl in buffer; 1 μM each oligonucleotide
Protocol: Melting temperature of probes and ligation products in hybridization buffer (50 mM MOPS pH 7.5, 250 mM NaCl) were measured using a Beckman-Coulter DU 640 spectrophotometer equipped with a high performance temperature controller and micro auto six-cell holder. Samples at 1 μM concentration of each oligonucleotide were heated to 90° C. and slowly cooled to RT over 1-1.5 h before the measurements. Melting temperature values were obtained by cooling samples from 90° C. to 20° C. at the rate of 1° C./min and measuring at 1° C. increments with each read averaged over 1 s.

27mer RNA template = assay: Ligation of oligonucleotide probes with an RNA template; type: biochemical; details: ligating 13merF15′tet and 13mer3′cycp1
Protocol: (§4) Tetrazine and cyclopropene-modified oligonucleotide probes were ligated in the presence of a DNA or RNA template at a 1:1:1 ratio. Reactions were done in varying solution and temperature conditions, as indicated. Main hybridization buffer was 50 mM MOPS at pH 7.5, 250 mM NaCl. Ligation reactions with a mismatched DNA template were performed in 5 mM MgCl2 in standard 1× Tris-borate buffer (purchased as 10× UltraPure TBE from Invitrogen: 1.0 M Tris pH 8.4, 0.9 M Boric acid, 10 mM EDTA).
Ligation reactions were done in standard 96 fluorescence well plates using SpectraMax GeminiXS (Molecular Devices). Temperature was set by the instrument. Where indicated by standard deviations, experiments were performed multiple times. In order to avoid any secondary structure artifacts, DNA or RNA template with added tetrazine probe was first heated to 90° C. and crash-cooled on ice for 2 min right before the experiment. Each well was filled with a total of 100 μL reaction solution, and reactions were timed from the addition of the cyclopropene probe as the last step before starting the measurements. […] Buffer-only well intensities were subtracted from the measured raw data before analysis. Data was analyzed using GraphPad Prism 6.0 by applying a nonlinear fit of a one-phase association to each curve where fluorescein signal during reaction was measured.

[9] = test system: singly-mismatched 27mer template; assay: Single nucleotide mismatch discrimination in probe ligation; type: biochemical; details: 5 mM MgCl2 in Tris-borate buffer at 37° C.; reaction with 13merF15′tet
Protocol: as §4
A single nucleotide mismatch effect was determined on reaction completion in discriminating conditions from FIG. 2C and is depicted in Figure S8. TBE 1× buffer (pH 8.4, Invitrogen) with 5 mM MgCl2 solution at 37° C. was used for incubation of 13mer5′tet with 13mer3′cycp1 in the presence of a fully matched template, or a sample containing a fully matched template and a single mismatched template, and a sample with only a singly-mismatched template. All DNA concentrations were kept at 1 μM. Fluorescence measurements were taken using a Perkin Elmer LD-45 spectrophotometer, as described above, with the samples in the quartz cuvettes warmed with attached circulating water bath. Initial timepoints were taken of prewarmed samples prior to template addition, and subtracted from the final intensity values (Figure S8).

27mer DNA template [10] = assay: Template-driven ligation of tetrazine and cyclopropene oligonucleotide probes (fluorescence); type: biochemical
Protocol: as §4
Ligation reactions were done in standard 96 fluorescence well plates using SpectraMax GeminiXS (Molecular Devices). Temperature was set by the instrument. Where indicated by standard deviations, experiments were performed multiple times. In order to avoid any secondary structure artifacts, DNA or RNA template with added tetrazine probe was first heated to 90° C. and crash-cooled on ice for 2 min right before the experiment. Each well was filled with a total of 100 μL reaction solution, and reactions were timed from the addition of the cyclopropene probe as the last step before starting the measurements. Wells were scanned every 20-60 s depending on the speed of the reactions by using 485 nm excitation and 538 nm emission with the cutoff set at 495 nm. Control reactions without template were done in parallel each time. Buffer-only well intensities were subtracted from the measured raw data before analysis. Data was analyzed using GraphPad Prism 6.0 by applying a nonlinear fit of a one-phase association to each curve where fluorescein signal during reaction was measured.

With “1,3,4,6-Tetra-O-acety-N-cyclopropene tag-D-mannosamine [Ac4ManNCyc]” the “fluorogenic response of quenched tetrazine probe” value [1] was “elicits fluorogenic responses”, the “cell surface staining by confocal microscopy” value (LS174T cells) was “bright surface staining” and the “cell surface staining by confocal microscopy” value (SKBR3 cells [2]) was “bright surface staining”. The “fluorescence intensity by flow cytometry compared to controls” value (SKBR3 cells [3]) was “increased fluorescence intensity”, the “cell surface staining after co-incubation of both sugars” value ([4]; 100 μM, 2 days, stained with 10 μM tetrazine-Alexa Fluor 488 and 15 μM DIBO 647) was “cell surface staining in both the fluorescent channels” and the “cross reactivity: surface staining with DIBO 647” value ([4]; cells incubated with only this sugar) was “minimal surface staining”.
In the case of “2-methyl-cyclopropene carbamate [cyclopropene 5]”, the “degradation in aqueous solutions” value [5] is reported as “no significant degradation”, the “storage stability at −20° C.” value [6] is reported as “without degradation” and the rate constant ([7]; 20° C., 12% DMSO by volume) is reported as 7 ± 1 M⁻¹ s⁻¹. The “improvement of rate constant compared to cyclopropene carboxamide 2” value ([7]; 37° C.) was “approximately two orders of magnitude” and the “second order rate constant” value ([7]; 37° C., water/DMSO (12% DMSO by volume)) was 13 ± 2 M⁻¹ s⁻¹.
In the case of “13mer3′cycp1: 5′-ATT CAA CAC TAC C/3AmMO/-cyclopropene-3′ (SEQ ID NO:5), methyl-cyclopropene carbamate cycp1 (DNA ATTCAACACTACC; DNA, 3' {3AmMO}-{cycp1}, backbone not given here)”, the “Melting T” value (27mer DNA template [8]) is reported as 50.4 °C, the “ligation with RNA template compared with DNA template” value (27mer RNA template) is reported as “equally effective” and the “effect of single mismatch (T to G) in template on reaction rate” value [9] is reported as “only a moderate difference”. The “reaction yield by LC/MS” value (27mer DNA template [10]; disappearance of 13merF15′tet and appearance of product) was “approximately 92%”, the “effective molarity of the intramolecular reaction” value (27mer DNA template [10]; estimated assuming the reaction is limited by ligation) was 53 mM and the “observed first order rate constant of DNA-templated reaction” value (27mer DNA template [10]; reaction with 13merF15′tet in the presence of DNA template) was 0.019 ± 0.001 s⁻¹. For the same substance, the “time at which the fluorescence signal plateaus” value (27mer DNA template [10]; reaction with 13merF15′tet, 1 μM 27mer template) was “about 200 s”.
